# Laboratory results: ChEMBL document CHEMBL1126473, “Benzolactams as non-peptide cholecystokinin receptor ligands” (Bioorg Med Chem Lett, 1993)
# pIC50: −log10 of the molar value.
# How the values were obtained:
# [1] = target: T1, Cholecystokinin receptor type A (Rattus norvegicus, UniProt P30551); assay: Ability to inhibit the binding of [125I]CCK-8 to Cholecystokinin type A receptor in rat pancreas.
# T1 sequence (P30551 whole entry): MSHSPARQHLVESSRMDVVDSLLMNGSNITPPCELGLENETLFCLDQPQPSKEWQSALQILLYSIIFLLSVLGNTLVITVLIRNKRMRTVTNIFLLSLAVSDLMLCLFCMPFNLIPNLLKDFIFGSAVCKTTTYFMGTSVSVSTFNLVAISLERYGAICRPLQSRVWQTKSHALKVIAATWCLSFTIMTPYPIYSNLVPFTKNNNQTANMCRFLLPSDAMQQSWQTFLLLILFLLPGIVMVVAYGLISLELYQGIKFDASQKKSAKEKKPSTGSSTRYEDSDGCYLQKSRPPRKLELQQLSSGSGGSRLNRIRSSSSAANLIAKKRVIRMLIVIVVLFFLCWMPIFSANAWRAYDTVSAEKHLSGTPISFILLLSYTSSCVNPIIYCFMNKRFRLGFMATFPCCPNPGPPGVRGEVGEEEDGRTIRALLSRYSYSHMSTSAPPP
# [2] = Ability to inhibit the binding of [125I]-gastrin to gastric glands in guinea pig.
# [3] = Ability to inhibit the binding of [125I]CCK-8 to Cholecystokinin type B receptor in guinea pig cortex.
SMILES,pIC50 [1],pIC50 [2],pIC50 [3]
Cc1cccc(NC(=O)NC2CCc3ccccc3N(CC(=O)N3CCCC3)C2=O)c1 (configuration not stated),6.89,,
COc1cccc(NC(=O)N[C@H]2CCc3ccccc3N(CC(=O)N3CCCC3)C2=O)c1,6.47,,
CC(C)(C)OC(=O)CN1C(=O)C(NC(=O)c2ccc3ccccc3c2)CCc2ccccc21 (configuration not stated),8.12,,
Cc1cccc(NC(=O)NC2CCc3ccccc3N(CC(=O)OC(C)(C)C)C2=O)c1 (configuration not stated),6.85,,
Cc1cccc(NC(=O)N[C@H]2CCc3ccccc3N(CC(=O)N3CCCC3)C2=O)c1,6.00,,
Cc1cccc(NC(=O)N[C@@H]2CCc3ccccc3N(CC(=O)N3CCCC3)C2=O)c1,7.52,,
COc1cccc(NC(=O)N[C@@H]2CCc3ccccc3N(CC(=O)N3CCCC3)C2=O)c1,7.55,,
CCOC(=O)CN1C(=O)C(NC(=O)Nc2ccc(Cl)cc2)N=C(c2ccccc2)c2ccccc21 (configuration not stated),,8.48,9.00
COc1cccc(NC(=O)NC2CCc3ccccc3N(CC(=O)OC(C)(C)C)C2=O)c1 (configuration not stated),7.21,,
O=C(Nc1ccc(Cl)cc1)NC1N=C(c2ccccc2)c2ccccc2N(CC(=O)N2CCCC2)C1=O (configuration not stated),,9.30,9.55
